From US20260000496A1, “MATERIALS AND METHODS FOR DRUG-INDUCED GINGIVAL OVERGROWTH” (Optimed Technology, Inc., priority 2019, published 2026)

Tests used:
[1] = Folic acid release from PLG(A) microspheres in methylcellulose gel; format: physicochemical
Description: Folic acid was encapsulated in polylactic-colycolide (PLG) microspheres that were visualized using scanning electron microscopy (SEM) (A). These microspheres were embedded within a methylcellulose gel to enable oral applications and visualized using SEM (B). Controlled release of folic acid of a protracted time course was examined using spectroscopy and cumulative release was calculated (C).
In order to deliver the Folic acid treatment, a controlled release system with polylactic glycolic acid (PLGA) and methylcellulose gel were used (FIG. 36). Release kinetics of folic acid increased over time and noted to continue until day 21. The amount of the released Folic acid was approximate 400 μg/ml on day 1 and reached 800 μg/ml on day 21 due to bulk deterioration of polymer.
Microsphere Fabrication. The folic acid was encapsulated in poly (lactide-co-glycolide) (PLG) (8515DLG7E, Lakeshore Biomaterials, Birmingham, AL, USA) microspheres using double emulsion solvent evaporation method. Briefly, a 100 μL quantity of proteins dissolved in molecular-grade water was pipetted into 1 mL of 5% PLG in ethyl acetate (Sigma-Aldrich Corp., St. Louis, MO, USA) and sonicated (Sonics and Materials Inc., Newtown, CT, USA) on 50% magnitude for 1 min. A second emulsion composed of 1% […] (PVA) (Sigma-Aldrich) and 7% ethyl acetate was then added and vortexed for 15 sec. The solution was then added to a 1% PVA solution with continuous stirring for 3 hrs at room temperature and filtered through a 0.2-μm filter (Nalgene, ThermoFisher Scientific, Rockville, MD, USA), collected by centrifugation at 2,000 rpm for 10 min (Eppendorf, Hamburg, Germany), freeze-dried for 16 hrs (Labconco, Kansas City, MO, USA), and stored at −20° C. The microspheres fabricated with this technique were between 2 and 200 microns.
Gel preparation and folic acid release study. Folic acid (100 μg/ml) (Sigma-Aldrich, St Louis, MO) was encapsulated in PLG microspheres as described above. The resulting lyophilized powder was formulated into an oral gel containing 20 mg of folic acid microspheres mixed with 5% of methylcellulose (Sigma-Aldrich, St Louis, MO) in 330 μl of phosphate buffer saline. The gels were prepared fresh daily before applications and repeated until end of the study period (14 days).

[2] = test system: LITAF; test: Mice study #2: LITAF immunoblotting of gingival samples; format: in vivo, C57BL/6 mice; conditions: pattern as for Myd88 (disease higher than control and treatment)
Description: Western blot analysis. Cells were seeded in 60 mm plates with a density of 5×10^5 cells per plate and washed briefly with Dulbecco's phosphate-buffered saline (Gibco, Waltham, MA, USA). Whole cell lysates were prepared using RIPA lysis buffer containing protease inhibitor cocktail (Sigma-Aldrich). Total protein concentration was determined using the BCA reagent (Pierce, Waltham, MA, USA). 20 μg of total protein were resolved on sodium dodecyl sulfate-polyacrylamide gel electrophoresis and transferred to polyvinylidenedifluoride membrane and immunoblotted. The blots were incubated for 1 h in 1% bovine serum albumin (BSA) (Sigma-Aldrich) to block the non-specific bindings followed by over-night incubation in primary antibodies (MyD88 and pP65 from Cell Signaling Technology, and human LITAF ThermoFisher Sigma) at 4° C. on shaker. Next day, blots were washed for three times (10 min each) in Tris-buffered saline containing 1% Tween20 (TBST) followed by incubation with secondary antibody (Goat anti-rabbit IgG HRP) with 1:10,000 dilution for 1 h. […] The band intensities were quantified using software ImageJ (NIH, USA) and relative protein levels were normalized by β-actin (Cell Signaling). […] The band intensities were measured by the software ImageJ (NIH, USA), and relative protein levels were normalized by β-actin.

Nc1nc2ncc(CNc3ccc(C(=O)N[C@@H](CCC(=O)O)C(=O)O)cc3)nc2c(=O)[nH]1 [folic acid]
release of folic acid from polymeric microspheres ([1]; FIG. 20): sustained release
release of folic acid noted to continue until ([1]; controlled release system with PLGA and methylcellulose gel): 21 days
amount of the released Folic acid ([1]; controlled release system with PLGA and methylcellulose gel, day 1): ~400 µg/mL
amount of the released Folic acid ([1]; controlled release system with PLGA and methylcellulose gel, day 21): 800 µg/mL
LITAF expression, pattern across groups [2]: a similar pattern
